Results published in patent US20220380319A1 (Bial - R&D Investments, S.A., priority 2019, published 2022).
pIC50: −log10 of the molar value. ≈ marks a conversion by molar mass, not a printed value.

Columns and labels:
acid ceramidase = target: T1, acid ceramidase (Homo sapiens, UniProt Q13510); assay: Acid ceramidase inhibition, biochemical fluorescent assay with cell lysates overexpressing acid ceramidase, substrate Rbm14-12; conditions: substrate Rbm14-12 6.3 μM, pH 4.5
T1 construct: Cell lysates overexpressing acid ceramidase were used as the enzyme source; expressed in transfected cells
T1 sequence (Q13510 22-395): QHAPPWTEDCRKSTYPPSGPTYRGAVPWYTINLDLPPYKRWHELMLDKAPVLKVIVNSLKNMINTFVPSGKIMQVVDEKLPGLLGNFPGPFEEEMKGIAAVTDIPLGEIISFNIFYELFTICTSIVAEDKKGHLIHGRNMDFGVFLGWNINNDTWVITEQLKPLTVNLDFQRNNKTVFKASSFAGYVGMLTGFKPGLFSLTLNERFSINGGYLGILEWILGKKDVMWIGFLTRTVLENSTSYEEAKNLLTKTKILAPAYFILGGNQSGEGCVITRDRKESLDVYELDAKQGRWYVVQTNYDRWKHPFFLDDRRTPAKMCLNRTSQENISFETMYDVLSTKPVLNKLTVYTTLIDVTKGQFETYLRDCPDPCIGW
In short: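 IC50 derived by four-parameter fitting of fluorescence (ex360 nm, em446 nm) produced after 1 hr in methanol/NaIO4/glycine stop buffer, pH 10.6. Reaction: 6.3 μM Rbm14-12, 1 hr RT, following 1 hr RT compound preincubation with 10 μg overexpressing-cell lysate protein in pH 4.5 NaAC/NaCl buffer.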

[1] = Compound solubility in water

| SMILES | pIC50 (acid ceramidase) | solubility [1] |
| --- | --- | --- |
| C[C@H](CCNC(=O)n1cnc2c(N3CCN(C)CC3)cccc21)c1ccccc1 [Example 253b, (R)-4-(4-methylpiperazin-1-yl)-N-(3-phenylbutyl)-1H-benzo[d]imidazole-1-carboxamide] | > 6.70 | 27 µg/mL (≈ 69 µM) |
| CN1CCN(c2cccc3c2ncn3C(=O)NCCCC2(C(F)(F)F)CC2)CC1 [Example 254, 4-(4-Methylpiperazin-1-yl)-N-(3-(1-(trifluoromethyl)cyclopropyl)propyl)-1H-benzo[d]imidazole-1-carboxamide] | > 6.70 | 20 µg/mL (≈ 48.8 µM) |
| CN1CCN(c2cccc3c2ncn3C(=O)NCCCC(F)(F)F)CC1 [Example 255, 4-(4-Methylpiperazin-1-yl)-N-(4,4,4-trifluorobutyl)-1H-benzo[d]imidazole-1-carboxamide] | 6.00 to 6.70 | 35 µg/mL (≈ 94.8 µM) |
| CN1CCN(c2cccc3c2ncn3C(=O)NCC2CCC(F)(F)CC2)CC1 [Example 256, N-((4,4-Difluorocyclohexyl)methyl)-4-(4-methylpiperazin-1-yl)-1H-benzo[d]imidazole-1-carboxamide] | 6.00 to 6.70 | 24 µg/mL (≈ 61.3 µM) |
| CN1CCN(c2cccc3c2ncn3C(=O)NCCOc2ccccc2)CC1 [Example 257, 4-(4-Methylpiperazin-1-yl)-N-(2-phenoxyethyl)-1H-benzo[d]imidazole-1-carboxamide] | > 6.70 | 19 µg/mL (≈ 50.1 µM) |
| CN1CCN(c2cccc3c2ncn3C(=O)NCCC2CCC(F)(F)C2)CC1 (centres unmarked) [Example 258, N-(2-(3,3-Difluorocyclopentyl)ethyl)-4-(4-methylpiperazin-1-yl)-1H-benzo[d]imidazole-1-carboxamide] | > 6.70 | 34 µg/mL (≈ 86.9 µM) |
| CN1CCN(c2cccc3c2ncn3C(=O)NCCC2CCCC2(F)F)CC1 (centres unmarked) [Example 259, N-(2-(2,2-Difluorocyclopentyl)ethyl)-4-(4-methylpiperazin-1-yl)-1H-benzo[d]imidazole-1-carboxamide] | 6.00 to 6.70 | 21 µg/mL (≈ 53.6 µM) |
| CN1CCN(c2cccc3c2ncn3C(=O)NCCCC2CC(F)(F)C2)CC1 [Example 260, N-(3-(3,3-Difluorocyclobutyl)propyl)-4-(4-methylpiperazin-1-yl)-1H-benzo[d]imidazole-1-carboxamide] | 6.00 to 6.70 | 31 µg/mL (≈ 79.2 µM) |
| CCN1CCC(c2cccc3c2ncn3C(=O)NCCCc2ccccc2)C1 (centres unmarked) [Example 261, 4-(1-Ethylpyrrolidin-3-yl)-N-(3-phenylpropyl)-1H-benzo[d]imidazole-1-carboxamide] | > 6.70 | 26 µg/mL (≈ 69.1 µM) |
| O=C(NCCCc1ccccc1)n1cnc2c(CCCN3CCC3)cccc21 [Example 262, 4-(3-(Azetidin-1-yl)propyl)-N-(3-phenylpropyl)-1H-benzo[d]imidazole-1-carboxamide] | > 6.70 | 21 µg/mL (≈ 55.8 µM) |
| CC1(N)CCN(c2cccc3c2ncn3C(=O)NCCCc2ccccc2)CC1 [Example 263, 4-(4-Amino-4-methylpiperidin-1-yl)-N-(3-phenylpropyl)-1H-benzo[d]imidazole-1-carboxamide] | > 6.70 | 25 µg/mL (≈ 63.9 µM) |
| CN(C)C1CCN(c2cccc3c2ncn3C(=O)NCCCc2ccccc2)C1 (centres unmarked) [Example 264, 4-(3-(Dimethylamino)pyrrolidin-1-yl)-N-(3-phenylpropyl)-1H-benzo[d]imidazole-1-carboxamide] | > 6.70 | 21 µg/mL (≈ 53.6 µM) |
| O=C(NCCCc1ccccc1)n1cnc2c(N3CC4CNCC4C3)cccc21 (centres unmarked) [Example 265, 4-(Hexahydropyrrolo[3,4-c]pyrrole-2(1H)-yl)-N-(3-phenylpropyl)-1H-benzo[d]imidazole-1-carboxamide] | > 6.70 | 27 µg/mL (≈ 69.3 µM) |
| CN1CC2CN(c3cccc4c3ncn4C(=O)NCCCc3ccccc3)CC2C1 (centres unmarked) [Example 266, 4-(5-Methylhexahydropyrrolo[3,4-c]pyrrol-2(1H)-yl)-N-(3-phenylpropyl)-1H-benzo[d]imidazole-1-carboxamide] | > 6.70 | 34 µg/mL (≈ 84.3 µM) |
| CN1CCC(c2cccc3c2ncn3C(=O)NCCCc2ccccc2)C1 (centres unmarked) [Example 267, 4-(1-Methylpyrrolidin-3-yl)-N-(3-phenylpropyl)-1H-benzo[d]imidazole-1-carboxamide] | > 6.70 | 25 µg/mL (≈ 69 µM) |
| CNC1CCN(c2cccc3c2ncn3C(=O)NCCCc2ccccc2)C1 (centres unmarked) [Example 268, 4-(3-(Methylamino)pyrrolidin-1-yl)-N-(3-phenylpropyl)-1H-benzo[d]imidazole-1-carboxamide] | > 6.70 | 17 µg/mL (≈ 45 µM) |
| CN1CCCN(c2cccc3c2ncn3C(=O)NCCCc2ccccc2)CC1 [Example 269, 4-(4-Methyl-1,4-diazepan-1-yl)-N-(3-phenylpropyl)-1H-benzo[a]imidazole-1-carboxamide] | > 6.70 | 21 µg/mL (≈ 53.6 µM) |

| SMILES | pIC50 (acid ceramidase) | solubility [1] |
| --- | --- | --- |
| CN1CC(c2cccc3c2ncn3C(=O)NCCCc2ccccc2)C1 [Example 270, 4-(1-Methylazetidin-3-yl)-N-(3-phenylpropyl)-1H-benzo[d]imidazole-1-carboxamide] | > 6.70 | 32 µg/mL (≈ 91.8 µM) |
| CN1CCC2CCN(c3cccc4c3ncn4C(=O)NCCCc3ccccc3)CC21 (centres unmarked) [Example 271, 4-(1-Methyloctahydro-6H-pyrrolo[2,3-c]pyridin-6-yl)-N-(3-phenylpropyl)-1H-benzo[d]imidazole-1-carboxamide] | > 6.70 | 22 µg/mL (≈ 52.7 µM) |
| CN(C)CC1CN(c2cccc3c2ncn3C(=O)NCCCc2ccccc2)C1 [Example 272, 4-(3-((Dimethylamino)methyl)azetidin-1-yl)-N-(3-phenylpropyl)-1H-benzo[d]imidazole-1-carboxamide] | > 6.70 | 21 µg/mL (≈ 53.6 µM) |
| O=C(NCCCc1ccccc1)n1cnc2c(N3CC(C(F)(F)F)C3)cccc21 [Example 273, N-(3-Phenylpropyl)-4-(3-(trifluoromethyl)azetidin-1-yl)-1H-benzo[d]imidazole-1-carboxamide] | > 6.70 | 0.2 µg/mL (≈ 0.497 µM) |
| O=C1CCC2CN(c3cccc4c3ncn4C(=O)NCCCc3ccccc3)CCN12 (centres unmarked) [Example 275, 4-(6-Oxohexahydropyrrolo[1,2-a]pyrazin-2(1H)-yl)-N-(3-phenylpropyl)-1H-benzo[d]imidazole-1-carboxamide] | > 6.70 | 15 µg/mL (≈ 35.9 µM) |
| CN1CCN(C2CN(c3cccc4c3ncn4C(=O)NCCCc3ccccc3)C2)CC1 [Example 276, 4-(3-(4-Methylpiperazin-1-yl)azetidin-1-yl)-N-(3-phenylpropyl)-1H-benzo[d]imidazole-1-carboxamide] | > 6.70 | 28 µg/mL (≈ 64.7 µM) |
| CN1CCN(c2cccc3c2ncn3C(=O)NCCCc2ccccc2)CC1CF (centres unmarked) [Example 277, 4-(3-(Fluoromethyl)-4-methylpiperazin-1-yl)-N-(3-phenylpropyl)-1H-benzo[d]imidazole-1-carboxamide] | > 6.70 | 18 µg/mL (≈ 44 µM) |
| N#CCCN1CCN(c2cccc3c2ncn3C(=O)NCCCc2ccccc2)CC1 [Example 278, 4-(4-(2-Cyanoethyl)piperazin-1-yl)-N-(3-phenylpropyl)-1H-benzo[d]imidazole-1-carboxamide] | > 6.70 | 18 µg/mL (≈ 43.2 µM) |
| O=C(NCCCc1ccccc1)n1cnc2c(N3CCC3)cccc21 [Example 279, 4-(Azetidin-1-yl)-N-(3-phenylpropyl)-1H-benzo[d]-imidazole-1-carboxamide] | > 6.70 | 1 µg/mL (≈ 2.99 µM) |
| CC(C)C#CCNC(=O)n1cnc2c(N3CCN(C)CC3)cccc21 [Example 280, N-(4-Methylpent-2-ynyl)-4-(4-methylpiperazin-1-yl)-1H-benzo[d]imidazole-1-carboxamide] | > 6.70 | 16 µg/mL (≈ 47.1 µM) |
| CC#CCNC(=O)n1cnc2c(N3CCN(C)CC3)cccc21 [Example 281, N-(But-2-yn-1-yl)-4-(4-methylpiperazin-1-yl)-1H-benzo[d]imidazole-1-carboxamide] | 6.00 to 6.70 | 32 µg/mL (≈ 103 µM) |
| CN1CCN(c2cccc3c2ncn3C(=O)NCC#Cc2ccccc2)CC1 [Example 282, 4(4-Methylpiperazin-1-yl)-N-(3-phenylprop-2-yn-1-yl)-1H-benzo[d]imidazole-1-carboxamide] | > 6.70 | 21 µg/mL (≈ 56.2 µM) |
| CN1CCN(c2cccc3c2ncn3C(=O)NCC#CC2CC2)CC1 [Example 283, N-(3-Cyclopropylprop-2-ynyl)-4-(4-methylpiperazin-1-yl)-1H-benzo[d]imidazole-1-carboxamide] | > 6.70 | 28 µg/mL (≈ 83 µM) |
| CN1CCN(c2cccc3c2ncn3C(=O)NCC#CCC2CC2)CC1 [Example 284] | > 6.70 | 30 µg/mL (≈ 85.4 µM) |
| CN1CCN(c2cccc3c2ncn3C(=O)NCC#CCC2(C(F)(F)F)CC2)CC1 [Example 285, 4-(4-Methylpiperazin-1-yl)-N-(4-(1-(trifluoromethyl)cyclopropyl)but-2-yn-1-yl)-1H-benzo[d]imidazole-1-carboxamide] | > 6.70 | 22 µg/mL (≈ 52.4 µM) |
| O=C(NCCCc1ccccc1)n1cnc2c(N3CCN(C4COC4)CC3)cccc21 [Example 286, 4-(4-(Oxetan-3-yl)piperazin-1-yl)-N-(3-phenylpropyl)-1H-benzo[d]imidazole-1-carboxamide] | > 6.70 | 24 µg/mL (≈ 57.2 µM) |
| CN1CC(N2CCN(c3cccc4c3ncn4C(=O)NCCC3CCC(F)(F)C3)CC2)C1 (centres unmarked) [Example 287, N-(2-(3,3-Difluorocyclopentyl)ethyl)-4-(4-(1-methylazetidin-3-yl)piperazin-1-yl)-1H-benzo[d]imidazole-1-carboxamide] | 6.00 to 6.70 | 36 µg/mL (≈ 80.6 µM) |
